One test has as its system PKB (Akt). As to conditions: read-out: Cellular PKB Mean IC50; MDA-MB-468 cells, phosphorylation of Serine-9 of GSK-3β, 2 hours incubation.
The target in the next test is AKT1 (PKBα) (Homo sapiens (Human), UniProt P31749). The settings on record: read-out: In vitro PKBα Mean IC50, AKT1/PKBα active enzyme, Caliper LabChip LC3000.

The structures appear in SMILES notation. Where two headings read alike, the source gives them in different places.

AKT1 (PKBα), sequence (P31749 whole entry): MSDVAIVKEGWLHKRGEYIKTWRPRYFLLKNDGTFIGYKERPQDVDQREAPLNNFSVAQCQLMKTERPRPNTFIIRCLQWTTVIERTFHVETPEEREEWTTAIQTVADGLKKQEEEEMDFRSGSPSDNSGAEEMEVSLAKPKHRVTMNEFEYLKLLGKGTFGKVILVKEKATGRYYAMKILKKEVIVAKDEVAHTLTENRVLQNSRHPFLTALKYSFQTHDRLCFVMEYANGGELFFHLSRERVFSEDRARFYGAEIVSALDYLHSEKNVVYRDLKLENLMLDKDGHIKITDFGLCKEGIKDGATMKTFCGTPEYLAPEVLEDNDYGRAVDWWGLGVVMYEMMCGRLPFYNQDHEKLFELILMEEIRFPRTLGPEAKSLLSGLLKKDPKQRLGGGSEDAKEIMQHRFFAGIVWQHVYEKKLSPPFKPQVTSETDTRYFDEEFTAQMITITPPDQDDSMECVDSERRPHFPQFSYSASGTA

Take `NC1(C(=O)N[C@@H](CCN2CCNCC2)c2ccc(Cl)cc2)CCN(c2ncnc3[nH]ccc23)CC1` [Example 53, 4-amino-N-[(1S)-1-(4-chlorophenyl)-3-piperazin-1-ylpropyl]-1-(7H-pyrrolo[2,3-d]pyrimidin-4-yl)piperidine-4-carboxamide]: the 50% inhibitory concentration (IC50) – broadly, the concentration that inhibits the measured activity by half – in the test on PKB (Akt) was > 2400 nM; at AKT1 (PKBα), 6.3 nM.
The like results for `CN1CCN(CC[C@H](NC(=O)C2(N)CCN(c3ncnc4[nH]ccc34)CC2)c2ccc(Cl)cc2)CC1` [Example 50, 4-amino-N-[(1S)-1-(4-chlorophenyl)-3-(4-methylpiperazin-1-yl)propyl]-1-(7H-pyrrolo[2,3-d]pyrimidin-4-yl)piperidine-4-carboxamide] were, in that order, 190 nM and 4.3 nM.
Take `NC1(C(=O)N[C@@H](CCO)c2cccc(Cl)c2)CCN(c2ncnc3[nH]ccc23)CC1` [Example 40, 4-amino-N-[(1S)-1-(3-chlorophenyl)-3-hydroxypropyl]-1-(7H-pyrrolo[2,3-d]pyrimidin-4-yl)piperidine-4-carboxamide]: the IC50 with PKB (Akt) was found to be 1900 nM; at AKT1 (PKBα) it was 32 nM.
The like results for `C[C@H](NC(=O)C1(N)CCN(c2ncnc3[nH]ccc23)CC1)c1ccc(C(F)(F)F)cc1` [Example 41, 4-amino-1-(7H-pyrrolo[2,3-d]pyrimidin-4-yl)-N-{(1S)-1-[4-(trifluoromethyl)phenyl]ethyl}piperidine-4-carboxamide] were, in that order, 540 nM and 16 nM.
With `NC1(C(=O)N[C@H](CCO)c2ccc(Cl)cc2)CCN(c2ncnc3[nH]ccc23)CC1` [Example 15, (R)-4-amino-N-(1-(4-chlorophenyl)-3-hydroxypropyl)-1-(7H-pyrrolo[2,3-d]pyrimidin-4-yl)piperidine-4-carboxamide], in the test on PKB (Akt), the IC50 was > 3100 nM.
With `NCC(NC(=O)C1(N)CCN(c2ncnc3[nH]ccc23)CC1)c1ccc(Cl)cc1` (stereo not drawn) [Example 5, 4-amino-N-(2-amino-1-(4-chlorophenyl)ethyl)-1-(7H-pyrrolo[2,3-d]pyrimidin-4-yl)piperidine-4-carboxamide], the IC50 in the test with PKB (Akt) was 270 nM; on AKT1 (PKBα), 9.7 nM.
On the same counts, the results for `C[C@@H](NC(=O)C1(CN)CCN(c2ncnc3[nH]ccc23)CC1)c1ccc(Cl)cc1` [Example 17, (R)-4-(aminomethyl)-N-(1-(4-chlorophenyl)ethyl)-1-(7H-pyrrolo[2,3-d]pyrimidin-4-yl)piperidine-4-carboxamide] are 240 nM and 12 nM.
The like results for `CC(=O)NCCC(NC(=O)C1(N)CCN(c2ncnc3[nH]ccc23)CC1)c1ccc(Cl)cc1` (stereo not drawn) [Example 10, N-(3-acetamido-1-(4-chlorophenyl)propyl)-4-amino-1-(7H-pyrrolo[2,3-d]pyrimidin-4-yl)piperidine-4-carboxamide] were, in that order, 250 nM and 4.2 nM.
For the compound `NCC1(C(=O)NC(CCO)c2ccc(Cl)cc2)CCN(c2ncnc3[nH]ccc23)CC1` (stereo not drawn) [Example 12, 4-(aminomethyl)-N-(1-(4-chlorophenyl)-3-hydroxypropyl)-1-(7H-pyrrolo[2,3-d]pyrimidin-4-yl)piperidine-4-carboxamide], the IC50 in the test on PKB (Akt) is 100 nM.
In the case of `Cc1c[nH]c2ncnc(N3CCC(N)(C(=O)N[C@@H](CCO)c4ccc(Cl)cc4)CC3)c12` [Example 36, 4-amino-N-[(1S)-1-(4-chlorophenyl)-3-hydroxypropyl]-1-(5-methyl-7H-pyrrolo[2,3-d]pyrimidin-4-yl)piperidine-4-carboxamide], the figures for the IC50 in the test with PKB (Akt) and on AKT1 (PKBα) were 380 nM and 14 nM, respectively.
`C[C@H](NC(=O)C1(N)CCN(c2ncnc3[nH]ccc23)CC1)c1ccc(C#N)cc1` [Example 39, 4-amino-N-[(1S)-1-(4-cyanophenyl)ethyl]-1-(7H-pyrrolo[2,3-d]pyrimidin-4-yl)piperidine-4-carboxamide]: in the test on PKB (Akt), the half-maximal inhibitory concentration (IC50) came out at 1900 nM.
With `N#CC(NC(=O)C1(N)CCN(c2ncnc3[nH]ccc23)CC1)c1ccc(Cl)cc1` (stereo not drawn) [Example 45, 4-amino-N-[(4-chlorophenyl)(cyano)methyl]-1-(7H-pyrrolo[2,3-d]pyrimidin-4-yl)piperidine-4-carboxamide], the results for the half-maximal inhibitory concentration (IC50) with PKB (Akt) and on AKT1 (PKBα) were 770 nM and 230 nM, respectively.
For the compound `NC(=O)NCCC(NC(=O)C1(N)CCN(c2ncnc3[nH]ccc23)CC1)c1ccc(Cl)cc1` (stereo not drawn) [Example 67, 4-amino-N-(1-(4-chlorophenyl)-3-ureidopropyl)-1-(7H-pyrrolo[2,3-d]pyrimidin-4-yl)piperidine-4-carboxamide], the figures for the IC50 in the test on PKB (Akt) and on AKT1 (PKBα) (tested once only) were 890 nM and 7.7 nM, respectively.
For `NC1(C(=O)NC(Cc2nccs2)c2ccc(Cl)cc2)CCN(c2ncnc3[nH]ccc23)CC1` (stereo not drawn) [Example 62, 4-amino-N-(1-(4-chlorophenyl)-2-(thiazol-2-yl)ethyl)-1-(7H-pyrrolo[2,3-d]pyrimidin-4-yl)piperidine-4-carboxamide], the IC50 with PKB (Akt) turned out to be 560 nM; at AKT1 (PKBα), 28 nM.
Turning to `NC1(C(=O)N[C@@H](CCN2CCOCC2)c2ccc(Cl)cc2)CCN(c2ncnc3[nH]ccc23)CC1` [Example 51, 4-amino-N-[(1S)-1-(4-chlorophenyl)-3-morpholin-4-ylpropyl]-1-(7H-pyrrolo[2,3-d]pyrimidin-4-yl)piperidine-4-carboxamide], the IC50 was determined as 310 nM in the test on PKB (Akt) and 10 nM at AKT1 (PKBα).
On the same counts, the results for `NC1(C(=O)NC(Cn2cccn2)c2ccc(Cl)cc2)CCN(c2ncnc3[nH]ccc23)CC1` (stereo not drawn) [Example 60, 4-amino-N-[1-(4-chlorophenyl)-2-(1H-pyrazol-1-yl)ethyl]-1-(7H-pyrrolo[2,3-d]pyrimidin-4-yl)piperidine-4-carboxamide] are 470 nM and 23 nM.
`NC1(C(=O)N[C@@H](CCn2ccnc2)c2ccc(Cl)cc2)CCN(c2ncnc3[nH]ccc23)CC1` [Example 54, 4-amino-N-[(1S)-1-(4-chlorophenyl)-3-(1H-imidazol-1-yl)propyl]-1-(7H-pyrrolo[2,3-d]pyrimidin-4-yl)piperidine-4-carboxamide]: the 50% inhibitory concentration (IC50) was determined as 180 nM with PKB (Akt) and 3.4 nM at AKT1 (PKBα).
The like results for `NCCC(NC(=O)C1(N)CCN(c2ncnc3[nH]ccc23)CC1)c1ccc(Cl)cc1` (stereo not drawn) [Example 14, 4-amino-N-(3-amino-1-(4-chlorophenyl)propyl)-1-(7H-pyrrolo[2,3-d]pyrimidin-4-yl)piperidine-4-carboxamide] were, in that order, 940 nM and 3 nM.
For `CC(C)(O)C[C@H](NC(=O)C1(N)CCN(c2ncnc3[nH]ccc23)CC1)c1ccc(Cl)cc1` [Example 38, 4-amino-N-[(1S)-1-(4-chlorophenyl)-3-hydroxy-3-methylbutyl]-1-(7H-pyrrolo[2,3-d]pyrimidin-4-yl)piperidine-4-carboxamide], the figures for the IC50 in the test on PKB (Akt) and on AKT1 (PKBα) were 360 nM and 5.4 nM, respectively.
On the same counts, the results for `CNCCC(NC(=O)C1(N)CCN(c2ncnc3[nH]ccc23)CC1)c1ccc(Cl)cc1` (stereo not drawn) [Example 28, 4-amino-N-(1-(4-chlorophenyl)-3-(methylamino)propyl)-1-(7H-pyrrolo[2,3-d]pyrimidin-4-yl)piperidine-4-carboxamide] are 470 nM and 4.5 nM.
The like results for `CCN(CC)CC[C@H](NC(=O)C1(N)CCN(c2ncnc3[nH]ccc23)CC1)c1ccc(Cl)cc1` [Example 26, (S)-4-amino-N-(1-(4-chlorophenyl)-3-(diethylamino)propyl)-1-(7H-pyrrolo[2,3-d]pyrimidin-4-yl)piperidine-4-carboxamide] were, in that order, 90 nM and 5.6 nM.
As to `NC1(C(=O)N[C@@H](CCO)c2ccc(Cl)cc2)CCN(c2ncnc3[nH]cc(Br)c23)CC1` [Example 19, (S)-4-amino-1-(5-bromo-7H-pyrrolo[2,3-d]pyrimidin-4-yl)-N-(1-(4-chlorophenyl)-3-hydroxypropyl)piperidine-4-carboxamide], the half-maximal inhibitory concentration (IC50) in the test on PKB (Akt) was 260 nM.
For `NC1(C(=O)N[C@@H](CCO)c2ccc(Br)cc2)CCN(c2ncnc3[nH]ccc23)CC1` [Example 24, (S)-4-amino-N-(1-(4-bromophenyl)-3-hydroxypropyl)-1-(7H-pyrrolo[2,3-d]pyrimidin-4-yl)piperidine-4-carboxamide], the IC50 in the test on PKB (Akt) turned out to be 60 nM; on AKT1 (PKBα), 2.2 nM.
The like results for `NC1(C(=O)NC(Cc2ncc[nH]2)c2ccc(Cl)cc2)CCN(c2ncnc3[nH]ccc23)CC1` (stereo not drawn) [Example 59, 4-amino-N-(1-(4-chlorophenyl)-2-(1H-imidazol-2-yl)ethyl)-1-(7H-pyrrolo[2,3-d]pyrimidin-4-yl)piperidine-4-carboxamide] were, in that order, 840 nM and 6.3 nM.
The like results for `C[C@H](NC(=O)C1(N)CCN(c2ncnc3[nH]nc(Br)c23)CC1)c1ccc(Cl)cc1` [Example 31, 4-amino-1-(3-bromo-1H-pyrazolo[3,4-d]pyrimidin-4-yl)-N-[(1S)-1-(4-chlorophenyl)ethyl]piperidine-4-carboxamide] were, in that order, 1100 nM and 24 nM.
For the compound `C[C@@H](NC(=O)C1(N)CCN(c2ncnc3[nH]ccc23)CC1)c1ccc(Br)cc1` [Example 42, 4-amino-N-[(1R)-1-(4-bromophenyl)ethyl]-1-(7H-pyrrolo[2,3-d]pyrimidin-4-yl)piperidine-4-carboxamide], the IC50 in the test on PKB (Akt) was 4300 nM; at AKT1 (PKBα), 32 nM.
The like results for `N#CCC(NC(=O)C1(N)CCN(c2ncnc3[nH]ccc23)CC1)c1ccc(Cl)cc1` (stereo not drawn) [Example 68, 4-amino-N-(1-(4-chlorophenyl)-2-cyanoethyl)-1-(7H-pyrrolo[2,3-d]pyrimidin-4-yl)piperidine-4-carboxamide] were, in that order, 340 nM and 12 nM.
Turning to `NC1(C(=O)N[C@@H](CCO)c2ccc(Cl)cc2)CCN(c2ncnc3[nH]cc(C4CC4)c23)CC1` [Example 27, (S)-4-amino-N-(1-(4-chlorophenyl)-3-hydroxypropyl)-1-(5-cyclopropyl-7H-pyrrolo[2,3-d]pyrimidin-4-yl)piperidine-4-carboxamide], in the test with PKB (Akt), the IC50 came to 370 nM.
